Test results reported in US10874670B2, “Substituted fused heteroaromatic compounds as kinase inhibitors and the use thereof” (IMPACT THERAPEUTICS, INC., priority 2017, dated 2020).

How the values were obtained:
[1] = system: human colon cancer cell SW620; assay: MTT assay, growth of SW620 cells, compounds combined with CPT-11; format: cell-based; details: combined with CPT-11 (205 nM medium), 5 days, MTT
Protocol: Inhibitory effects of N,N-dimethyl-3-(4-(1-(tetrahydro-2H-pyran-4-yl)-[1,2,4]triazolo[4,3-a]quinoxalin-8-yl)phenoxy)propan-1-amine and its Analogues Combined with CPT-11 on the Growth of Human Colon Cancer Cell SW620 were Determined by MTT Assay
(§1) SW620 cells were digested by trypsinase, centrifuged at 800 rpm for 5 minutes, the supernatant was discarded, resuspended with fresh medium (RPMI 1640 medium+10% FBS) and counted. The cells were seeded into 96-well cell culture plate with appropriate cell density and incubated overnight in a 37° C. 5% CO2 incubator. The stock solutions of the tested compound and the reference compound AZD0156 were serially diluted to 8 concentrations by DMSO at the ratios of 1:3 and 1:10, respectively, the first concentration was 10 μM or 1 μM, and the last concentration was negative control of DMSO (0 μM, the final concentration of DMSO was 1%). 5 μL of each concentration was added to 120 μL of medium (25 times diluted) and mixed by shaking. The overnight cells were taken and the culture medium was removed, 195 μL of fresh medium containing 205 nM CPT-11 was added to each well, and 5 μL of diluted medium containing the corresponding concentration of the tested sample was added respectively, and the culture plate was then placed in the 5% CO2 cell culture incubator at 37° C. for 5 days. After removing the original solution, 100 pt of fresh serum-free DMEM medium containing MTT (0.5 mg/mL) was added to each well, the culture was continued. After 4 hours, the original solution was removed, 100 μL of DMSO was added into each well, the 96-well plates were shaken away from light for 10 minutes and placed in a multi-function reader to read the absorbance at the wavelength of 552/630/690 nm. GraphPad Prism 6.0 was used to analyze the data. The inhibitory activity of compounds on cell proliferation was plotted based on cell viability and compound concentration. The IC50 value was fitted by a sigmoidal dose response curve equation Y=100/(1+10^(Log C−Log IC50)), where C was the concentration of compound.
Table 3 summarizes the inhibitory effects of compounds combined with CPT-11 on the growth of human colon cancer cell SW620 (IC50).

ATM enzyme (human) = ATM enzyme (human) (Homo sapiens, UniProt Q13315); assay: ATM kinase assay (HTRF, GST-cMyc-p53 substrate); format: biochemical; details: for inhibition at 1 µM / inhibition at 0.01 µM / inhibition at 0.1 µM: 0.5 h, read-out: Inh (%) of ATM kinase
Sequence of ATM enzyme (human) (Q13315 whole entry): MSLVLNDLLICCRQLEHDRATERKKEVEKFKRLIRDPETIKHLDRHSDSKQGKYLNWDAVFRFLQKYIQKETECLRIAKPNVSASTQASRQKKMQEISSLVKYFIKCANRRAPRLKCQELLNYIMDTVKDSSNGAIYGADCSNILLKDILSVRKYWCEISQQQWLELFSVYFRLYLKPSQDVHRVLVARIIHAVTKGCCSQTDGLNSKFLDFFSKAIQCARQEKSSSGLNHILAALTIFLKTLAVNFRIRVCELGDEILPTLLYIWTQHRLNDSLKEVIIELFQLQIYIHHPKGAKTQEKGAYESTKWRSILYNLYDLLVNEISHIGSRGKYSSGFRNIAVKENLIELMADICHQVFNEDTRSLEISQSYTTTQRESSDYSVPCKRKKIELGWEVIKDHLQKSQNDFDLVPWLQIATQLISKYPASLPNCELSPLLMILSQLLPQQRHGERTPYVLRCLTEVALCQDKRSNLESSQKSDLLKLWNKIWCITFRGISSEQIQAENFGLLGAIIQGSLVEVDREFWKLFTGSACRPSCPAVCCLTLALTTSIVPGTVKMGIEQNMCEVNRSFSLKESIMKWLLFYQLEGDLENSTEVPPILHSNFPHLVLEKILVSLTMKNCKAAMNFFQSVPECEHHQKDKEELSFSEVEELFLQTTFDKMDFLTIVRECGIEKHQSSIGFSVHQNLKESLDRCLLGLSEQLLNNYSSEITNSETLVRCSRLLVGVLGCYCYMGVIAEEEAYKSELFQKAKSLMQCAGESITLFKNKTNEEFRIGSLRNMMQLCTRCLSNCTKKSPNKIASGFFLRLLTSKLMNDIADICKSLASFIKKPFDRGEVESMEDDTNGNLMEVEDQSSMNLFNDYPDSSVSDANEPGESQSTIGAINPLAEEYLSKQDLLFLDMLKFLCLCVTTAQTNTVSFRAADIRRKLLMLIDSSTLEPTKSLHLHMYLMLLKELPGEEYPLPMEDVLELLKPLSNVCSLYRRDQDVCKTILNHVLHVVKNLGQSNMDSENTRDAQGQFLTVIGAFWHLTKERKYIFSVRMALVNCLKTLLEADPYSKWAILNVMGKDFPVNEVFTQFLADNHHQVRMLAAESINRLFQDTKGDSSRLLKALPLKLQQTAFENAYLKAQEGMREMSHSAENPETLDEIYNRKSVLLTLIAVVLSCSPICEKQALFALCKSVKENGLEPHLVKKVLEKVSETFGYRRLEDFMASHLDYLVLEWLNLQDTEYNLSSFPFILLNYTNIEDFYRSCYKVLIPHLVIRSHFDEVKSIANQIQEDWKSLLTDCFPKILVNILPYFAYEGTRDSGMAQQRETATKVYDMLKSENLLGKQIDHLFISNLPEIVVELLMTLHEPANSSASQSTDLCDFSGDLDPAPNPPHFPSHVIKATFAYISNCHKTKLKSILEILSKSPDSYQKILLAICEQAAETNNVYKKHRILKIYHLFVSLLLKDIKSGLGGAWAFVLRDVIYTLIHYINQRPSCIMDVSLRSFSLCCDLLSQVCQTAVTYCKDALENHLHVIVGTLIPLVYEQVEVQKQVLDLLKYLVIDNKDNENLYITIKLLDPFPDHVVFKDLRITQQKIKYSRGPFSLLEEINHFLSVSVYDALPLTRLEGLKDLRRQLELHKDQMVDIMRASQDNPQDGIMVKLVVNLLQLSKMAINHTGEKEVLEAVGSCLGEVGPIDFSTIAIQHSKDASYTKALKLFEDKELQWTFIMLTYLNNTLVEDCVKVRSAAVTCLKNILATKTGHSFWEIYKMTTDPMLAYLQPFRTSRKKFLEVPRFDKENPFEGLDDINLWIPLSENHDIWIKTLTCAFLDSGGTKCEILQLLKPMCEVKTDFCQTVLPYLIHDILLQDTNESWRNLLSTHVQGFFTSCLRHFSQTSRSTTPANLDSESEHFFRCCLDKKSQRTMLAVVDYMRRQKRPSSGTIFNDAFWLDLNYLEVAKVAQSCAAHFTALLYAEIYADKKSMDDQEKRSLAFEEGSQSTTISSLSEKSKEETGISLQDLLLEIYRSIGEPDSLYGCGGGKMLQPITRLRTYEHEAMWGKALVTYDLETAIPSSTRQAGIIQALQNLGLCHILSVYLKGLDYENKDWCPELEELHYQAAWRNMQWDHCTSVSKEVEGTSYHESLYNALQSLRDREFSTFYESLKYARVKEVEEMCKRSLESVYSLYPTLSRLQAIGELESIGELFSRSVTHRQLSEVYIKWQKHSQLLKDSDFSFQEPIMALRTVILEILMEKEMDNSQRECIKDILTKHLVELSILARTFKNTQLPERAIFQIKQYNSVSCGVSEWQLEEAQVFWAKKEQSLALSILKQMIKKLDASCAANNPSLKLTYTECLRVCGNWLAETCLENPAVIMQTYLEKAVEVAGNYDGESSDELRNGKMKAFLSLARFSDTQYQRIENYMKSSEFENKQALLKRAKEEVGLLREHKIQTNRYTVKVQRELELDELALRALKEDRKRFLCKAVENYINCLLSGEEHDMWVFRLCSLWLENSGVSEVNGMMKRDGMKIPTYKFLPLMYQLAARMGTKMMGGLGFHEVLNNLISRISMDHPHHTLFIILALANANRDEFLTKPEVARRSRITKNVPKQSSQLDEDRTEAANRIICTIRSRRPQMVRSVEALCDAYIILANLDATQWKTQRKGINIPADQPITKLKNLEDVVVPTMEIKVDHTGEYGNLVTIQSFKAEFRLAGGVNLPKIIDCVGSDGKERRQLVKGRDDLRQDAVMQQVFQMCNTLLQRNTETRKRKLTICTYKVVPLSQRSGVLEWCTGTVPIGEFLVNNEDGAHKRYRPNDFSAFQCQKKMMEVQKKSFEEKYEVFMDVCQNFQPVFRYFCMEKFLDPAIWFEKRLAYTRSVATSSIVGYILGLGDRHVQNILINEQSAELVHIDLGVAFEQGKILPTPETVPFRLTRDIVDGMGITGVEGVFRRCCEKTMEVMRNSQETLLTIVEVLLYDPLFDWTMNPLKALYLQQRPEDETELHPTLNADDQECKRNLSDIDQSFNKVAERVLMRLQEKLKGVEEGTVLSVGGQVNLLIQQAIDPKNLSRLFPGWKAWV
Protocol: In Vitro Inhibition of ATM by N,N-dimethyl-3-(4-(1-(tetrahydro-2H-pyran-4-yl)-[1,2,4]triazolo[4,3-a]quinoxalin-8-yl)phenoxy)propan-1-amine and its Analogues was Determined by ATM Kinase Assay
The reaction was initiated by the addition of a Mg/ATP mixture and incubation for 30 minutes at room temperature, the reaction was quenched by the addition of a stop solution containing EDTA. Finally, the detection buffer containing the d2-labeled anti-GST monoclonal antibody and the europium-labeled anti-phospho p53 (Ser15) antibody was added. The plate was then read in time resolved fluorescence mode and the homogeneous time resolved fluorescence (HTRF) signal was determined according to the equation: HTRF=10000×(Em665nm/Em620nm). Each compound sample was repeated in duplicate. The experiment negative control was all components except of the ATM enzyme and the positive control contained all components. All reactions were quenched by adding EDTA.
ATM kinase inhibition was detected by using the method described above. The curve equation for calculating IC50 value is as follows:
[formula] • wherein, C is the concentration of compound and D is the slope factor.

[2] = system: human breast cancer cell MDA-MB-468; assay: MTT assay, growth of MDA-MB-468 cells; format: cell-based; details: 7 days, MTT
Protocol: Inhibitory Effects of N,N-dimethyl-3-(4-(1-(tetrahydro-2H-pyran-4-yl)-[1,2,4]triazolo[4,3-a]quinoxalin-8-yl)phenoxy)propan-1-amine and its Analogues on the Growth of Human Breast Cancer Cell MDA-MB-468 were Determined by MTT Assay
as §1, with “MDA-MB-468 cells” for “SW620 cells”, “1:10, respectively:” for “1:10, respectively,”, “was 100” for “was 10”, “medium” for “medium containing 205 nM CPT-11”, “for 7 days (On the fourth day, the medium containing drugs was removed and fresh medium containing drugs was added for continuous cultivation).” for “for 5 days.”, “100 μL” for “100 pt”
Table 4 summarizes the inhibitory effects of compounds on the growth of human breast cancer cell MDA-MB-468 (IC50).

[3] = C 1 μm (final concentration of compound)
[4] = C 0.01 μm (final concentration of compound)
[5] = C 0.1 μm (final concentration of compound)
[6] = Homo sapiens, MDA-MB-468, 168 h

Structure (SMILES)	IC50 ([1]; Homo sapiens, SW-620, 120 h) [nM]	inhibition at 1 µM (ATM enzyme (human); [3]) [%]	inhibition at 0.01 µM (ATM enzyme (human); [4]) [%]	inhibition at 0.1 µM (ATM enzyme (human); [5]) [%]	IC50 [2, 6] [nM]	further results
c1ccc(-c2ccc3ncc4nnc(C5CCOCC5)n4c3c2)cc1 [Example 39, 8-phenyl-1-(tetrahydro-2H-pyran-4-yl)-[1,2,4]triazolo[4,3-a]quinoxaline]	> 100000	62				
C[N+](C)(C)CCCNc1ccc(-c2ccc3ncc4nnc(C5CCOCC5)n4c3c2)cc1 [Example 40, N,N,N-trimethyl-3-((4-(1-(tetrahydro-2H-pyran-4-yl)-[1,2,4]triazolo[4,3-a]quinoxalin-8-yl)phenyl)amino)propan-1-aminium]						IC50 [1]: > 100000 nM; Inh (%) of ATM kinase (ATM enzyme (human); [4]): 33%; Inh (%) of ATM kinase (ATM enzyme (human); [5]): 81%; Inh (%) of ATM kinase (ATM enzyme (human); [3]): 99%
NC1CCN(c2ccc(-c3ccc4ncc5nnc(C6CCOCC6)n5c4c3)cc2)CC1 [Example 41, 1-(4-(1-(tetrahydro-2H-pyran-4-yl)-[1,2,4]triazolo[4,3-a]quinoxalin-8-yl)phenyl)piperidin-4-amine]	456	99	33	81		
CNC1CCN(c2ccc(-c3ccc4ncc5nnc(C6CCOCC6)n5c4c3)cc2)CC1 [Example 42, N-methyl-1-(4-(1-(tetrahydro-2H-pyran-4-yl)-[1,2,4]triazolo[4,3-a]quinoxalin-8-yl)phenyl)piperidin-4-amine]	211	99	68	90		
CCNC1CCN(c2ccc(-c3ccc4ncc5nnc(C6CCOCC6)n5c4c3)cc2)CC1 [Example 43, N-ethyl-1-(4-(1-(tetrahydro-2H-pyran-4-yl)-[1,2,4]triazolo[4,3-a]quinoxalin-8-yl)phenyl)piperidin-4-amine]	357	100	47	89		
C[C@@H]1CN(c2nnc3cnc4ccc(-c5ccc(N6CCC(N(C)C)CC6)c(F)c5)cc4n23)C[C@H](C)N1C [Example 59, 1-(2-fluoro-4-(1-((3S,5R)-3,4,5-trimethylpiperazin-1-yl)-[1,2,4]triazolo[4,3-a]quinoxalin-8-yl)phenyl)-N,N-dimethylpiperidin-4-amine]	14.4				6.61	
CN(C)C1CCN(c2ccc(-c3ccc4ncc5nnc(CN6CCOCC6)n5c4c3)cc2)CC1 [Example 65, N,N-dimethyl-1-(4-(1-(morpholinomethyl)-[1,2,4]triazolo[4,3-a]quinoxalin-8-yl)phenyl)piperidin-4-amine]	402	100	37	80		
CN(C)CCCOc1ccc(-c2cc3c(cn2)ncc2nnc(C4CCOCC4)n23)cc1 [Example 69, N,N-dimethyl-3-(4-(1-(tetrahydro-2H-pyran-4-yl)pyrido[3,4-e][1,2,4]triazolo[4,3-a]pyrazin-8-yl)phenoxy)propan-1-amine]						IC50 [2]: > 10000 nM
CN(C)C1CCN(c2ccc(-c3ccc4ncc5nnc(CN6CCOCC6)n5c4n3)cc2)CC1 [Example 78, N,N-dimethyl-1-(4-(9-(morpholinomethyl)pyrido[3,2-e][1,2,4]triazolo[4,3-a]pyrazin-2-yl)phenyl)piperidin-4-amine]	664	98	67	94		
CN(C)CCCOc1ccc(-c2ccc3ncc4nnc(CN5CCOCC5)n4c3n2)cc1 [Example 79, N,N-dimethyl-3-(4-(9-(morpholinomethyl)pyrido[3,2-e][1,2,4]triazolo[4,3-a]pyrazin-2-yl)phenoxy)propan-1-amine]	1980	94	21	62		
C[C@@H]1CN(c2nnc3cnc4ccc(-c5ccc(OCCCN(C)C)cc5)nc4n23)C[C@H](C)N1C [Example 80, N,N-dimethyl-3-(4-(9-((3S,5R)-3,4,5-trimethylpiperazin-1-yl)pyrido[3,2-e][1,2,4]triazolo[4,3-a]pyrazin-2-yl)phenoxy)propan-1-amine]	164				271	
C[C@@H]1CN(c2nnc3cnc4ccc(-c5ccc(OCCCN(C)C)c(F)c5)nc4n23)C[C@H](C)N1C [Example 81, 3-(2-fluoro-4-(9-((3S,5R)-3,4,5-trimethylpiperazin-1-yl)pyrido[3,2-e][1,2,4]triazolo[4,3-a]pyrazin-2-yl)phenoxy)-N,N-dimethylpropan-1-amine]	138				201	
C[C@@H]1CN(c2nnc3cnc4ccc(-c5ccc(OCCCN(C)C)c(Cl)c5)nc4n23)C[C@H](C)N1C [Example 82, 3-(2-chloro-4-(9-((3S,5R)-3,4,5-trimethylpiperazin-1-yl)pyrido[3,2-e][1,2,4]triazolo[4,3-a]pyrazin-2-yl)phenoxy)-N,N-dimethylpropan-1-amine]	189				200	
C[C@@H]1CN(c2nnc3cnc4ccc(-c5ccc(OCCCN(C)C)c(C(F)(F)F)c5)nc4n23)C[C@H](C)N1C [Example 83, N,N-dimethyl-3-(2-(trifluoromethyl)-4-(9-((3S,5R)-3,4,5-trimethylpiperazin-1-yl)pyrido[3,2-e][1,2,4]triazolo[4,3-a]pyrazin-2-yl)phenoxy)propan-1-amine]	148				73.4	
C[C@@H]1CN(c2nnc3cnc4ccc(-c5ccc(N6CCC(N(C)C)CC6)cc5)nc4n23)C[C@H](C)N1C [Example 84, N,N-dimethyl-1-(4-(9-((3S,5R)-3,4,5-trimethylpiperazin-1-yl)pyrido[3,2-e][1,2,4]triazolo[4,3-a]pyrazin-2-yl)phenyl)piperidin-4-amine]	70.5				246	
C[C@@H]1CN(c2nnc3cnc4ccc(-c5ccc(N6CCC(N(C)C)CC6)c(F)c5)nc4n23)C[C@H](C)N1C [Example 85, 1-(2-fluoro-4-(9-((3S,5R)-3,4,5-trimethylpiperazin-1-yl)pyrido[3,2-e][1,2,4]triazolo[4,3-a]pyrazin-2-yl)phenyl)-N,N-dimethylpiperidin-4-amine]	41.3				22.2	
